Key:
[1] = biological target: T1, Alpha-2A adrenergic receptor (Homo sapiens, UniProt P08913)
T1 sequence (P08913 whole entry): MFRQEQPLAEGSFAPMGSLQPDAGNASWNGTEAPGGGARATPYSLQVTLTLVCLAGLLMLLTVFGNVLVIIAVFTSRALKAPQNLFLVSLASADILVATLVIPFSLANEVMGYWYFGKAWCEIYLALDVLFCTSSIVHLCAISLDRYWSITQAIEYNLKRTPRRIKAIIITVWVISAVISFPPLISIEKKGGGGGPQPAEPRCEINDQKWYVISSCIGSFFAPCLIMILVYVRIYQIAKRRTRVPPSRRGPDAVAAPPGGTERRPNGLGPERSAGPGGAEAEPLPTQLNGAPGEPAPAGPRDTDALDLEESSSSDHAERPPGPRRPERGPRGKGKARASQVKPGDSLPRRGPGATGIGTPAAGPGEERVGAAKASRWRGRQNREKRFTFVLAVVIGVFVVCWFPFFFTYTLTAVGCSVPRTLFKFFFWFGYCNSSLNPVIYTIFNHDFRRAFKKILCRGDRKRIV

[2] = biological target: T2, Alpha-2C adrenergic receptor (Homo sapiens, UniProt P18825); assay type: functional
T2 sequence (P18825 whole entry): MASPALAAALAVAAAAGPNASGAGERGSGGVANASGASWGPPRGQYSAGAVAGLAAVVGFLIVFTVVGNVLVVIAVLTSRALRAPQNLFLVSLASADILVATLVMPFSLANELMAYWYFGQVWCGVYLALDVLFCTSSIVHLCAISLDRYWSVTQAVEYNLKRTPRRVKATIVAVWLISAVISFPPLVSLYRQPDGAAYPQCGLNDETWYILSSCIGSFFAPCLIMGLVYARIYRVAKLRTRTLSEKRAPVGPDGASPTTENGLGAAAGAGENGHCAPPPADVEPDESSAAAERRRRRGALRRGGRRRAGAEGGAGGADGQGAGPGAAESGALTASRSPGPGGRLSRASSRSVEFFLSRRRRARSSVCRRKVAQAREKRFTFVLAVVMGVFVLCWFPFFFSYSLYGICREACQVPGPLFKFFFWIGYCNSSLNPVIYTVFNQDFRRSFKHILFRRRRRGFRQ

[3] = biological target: Synaptic vesicular amine transporter (Rattus norvegicus, UniProt Q01827); assay type: functional; further: assay procedure not described here
Synaptic vesicular amine transporter, sequence (Q01827 whole entry): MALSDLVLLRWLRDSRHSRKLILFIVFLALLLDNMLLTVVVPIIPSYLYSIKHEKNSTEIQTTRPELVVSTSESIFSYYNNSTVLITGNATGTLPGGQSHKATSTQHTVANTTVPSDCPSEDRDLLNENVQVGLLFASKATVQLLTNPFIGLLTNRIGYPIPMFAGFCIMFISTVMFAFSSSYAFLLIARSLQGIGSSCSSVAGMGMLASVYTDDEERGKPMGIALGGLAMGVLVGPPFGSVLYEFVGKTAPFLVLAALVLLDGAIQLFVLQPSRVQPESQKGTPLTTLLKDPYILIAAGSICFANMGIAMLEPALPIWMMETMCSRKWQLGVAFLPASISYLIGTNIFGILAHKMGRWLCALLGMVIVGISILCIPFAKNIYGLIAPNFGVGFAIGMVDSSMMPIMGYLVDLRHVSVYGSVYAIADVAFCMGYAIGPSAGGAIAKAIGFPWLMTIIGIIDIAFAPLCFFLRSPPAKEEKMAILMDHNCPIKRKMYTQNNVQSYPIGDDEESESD

Androgen receptor = biological target: T3, Androgen receptor (Homo sapiens, UniProt P10275); further: assay procedure not described here
T3 sequence (P10275 whole entry): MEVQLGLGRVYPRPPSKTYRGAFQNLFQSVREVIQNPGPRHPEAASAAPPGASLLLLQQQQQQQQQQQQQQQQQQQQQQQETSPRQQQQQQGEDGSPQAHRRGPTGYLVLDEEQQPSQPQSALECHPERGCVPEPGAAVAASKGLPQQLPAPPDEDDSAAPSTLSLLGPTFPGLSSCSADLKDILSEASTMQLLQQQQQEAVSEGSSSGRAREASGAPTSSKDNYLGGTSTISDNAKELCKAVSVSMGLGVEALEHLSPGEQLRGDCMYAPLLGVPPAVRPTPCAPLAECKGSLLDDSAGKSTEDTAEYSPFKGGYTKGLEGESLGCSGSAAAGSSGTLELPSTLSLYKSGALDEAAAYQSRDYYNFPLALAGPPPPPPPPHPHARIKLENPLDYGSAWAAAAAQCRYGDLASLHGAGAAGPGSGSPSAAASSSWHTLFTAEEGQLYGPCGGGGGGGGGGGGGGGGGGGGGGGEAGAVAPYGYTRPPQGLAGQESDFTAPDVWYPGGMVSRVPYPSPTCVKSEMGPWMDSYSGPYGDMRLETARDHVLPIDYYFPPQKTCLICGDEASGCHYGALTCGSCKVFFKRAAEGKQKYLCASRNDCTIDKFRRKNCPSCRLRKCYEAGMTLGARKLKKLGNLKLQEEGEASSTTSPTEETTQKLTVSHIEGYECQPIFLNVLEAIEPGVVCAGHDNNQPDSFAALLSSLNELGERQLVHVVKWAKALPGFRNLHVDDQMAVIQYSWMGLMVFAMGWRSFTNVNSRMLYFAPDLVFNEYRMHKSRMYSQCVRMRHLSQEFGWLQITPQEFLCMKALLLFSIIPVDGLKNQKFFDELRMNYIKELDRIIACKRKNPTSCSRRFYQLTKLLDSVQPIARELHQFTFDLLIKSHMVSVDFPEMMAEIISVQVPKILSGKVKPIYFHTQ

[4] = biological target: Gamma-aminobutyric acid receptor subunit alpha-1/alpha-2/beta-2/gamma-2 (Homo sapiens, UniProt P14867+P47870+P18507+P47869); assay type: functional, cell-based; further: assay procedure not described here
Gamma-aminobutyric acid receptor subunit alpha-1/alpha-2/beta-2/gamma-2, sequence (P14867 whole entry): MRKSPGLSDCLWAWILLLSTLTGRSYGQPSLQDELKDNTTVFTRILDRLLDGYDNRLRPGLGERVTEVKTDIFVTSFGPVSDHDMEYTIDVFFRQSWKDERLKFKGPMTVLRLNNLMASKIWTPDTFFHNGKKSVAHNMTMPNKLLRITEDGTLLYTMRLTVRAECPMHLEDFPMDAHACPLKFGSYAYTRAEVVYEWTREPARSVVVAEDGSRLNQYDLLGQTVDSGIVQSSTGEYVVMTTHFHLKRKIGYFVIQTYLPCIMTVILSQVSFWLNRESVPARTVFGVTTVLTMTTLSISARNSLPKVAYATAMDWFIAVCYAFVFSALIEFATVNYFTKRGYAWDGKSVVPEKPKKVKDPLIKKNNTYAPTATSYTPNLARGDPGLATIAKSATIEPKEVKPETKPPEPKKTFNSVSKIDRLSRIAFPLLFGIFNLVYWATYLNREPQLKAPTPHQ
Gamma-aminobutyric acid receptor subunit alpha-1/alpha-2/beta-2/gamma-2, sequence (P47870 whole entry): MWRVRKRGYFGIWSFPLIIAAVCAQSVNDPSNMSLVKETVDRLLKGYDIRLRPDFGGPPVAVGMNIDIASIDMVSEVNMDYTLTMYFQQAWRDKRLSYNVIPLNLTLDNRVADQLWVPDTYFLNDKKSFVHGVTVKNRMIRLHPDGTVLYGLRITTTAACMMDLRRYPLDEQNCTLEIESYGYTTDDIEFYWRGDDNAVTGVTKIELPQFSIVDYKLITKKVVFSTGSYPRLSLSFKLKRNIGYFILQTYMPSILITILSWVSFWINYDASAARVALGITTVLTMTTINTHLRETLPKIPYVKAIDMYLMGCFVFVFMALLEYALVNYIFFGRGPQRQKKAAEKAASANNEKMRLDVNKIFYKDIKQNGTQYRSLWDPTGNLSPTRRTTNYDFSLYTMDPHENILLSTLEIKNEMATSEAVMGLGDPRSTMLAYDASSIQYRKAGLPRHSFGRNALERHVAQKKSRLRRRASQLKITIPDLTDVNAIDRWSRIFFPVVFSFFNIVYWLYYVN
Gamma-aminobutyric acid receptor subunit alpha-1/alpha-2/beta-2/gamma-2, sequence (P18507 whole entry): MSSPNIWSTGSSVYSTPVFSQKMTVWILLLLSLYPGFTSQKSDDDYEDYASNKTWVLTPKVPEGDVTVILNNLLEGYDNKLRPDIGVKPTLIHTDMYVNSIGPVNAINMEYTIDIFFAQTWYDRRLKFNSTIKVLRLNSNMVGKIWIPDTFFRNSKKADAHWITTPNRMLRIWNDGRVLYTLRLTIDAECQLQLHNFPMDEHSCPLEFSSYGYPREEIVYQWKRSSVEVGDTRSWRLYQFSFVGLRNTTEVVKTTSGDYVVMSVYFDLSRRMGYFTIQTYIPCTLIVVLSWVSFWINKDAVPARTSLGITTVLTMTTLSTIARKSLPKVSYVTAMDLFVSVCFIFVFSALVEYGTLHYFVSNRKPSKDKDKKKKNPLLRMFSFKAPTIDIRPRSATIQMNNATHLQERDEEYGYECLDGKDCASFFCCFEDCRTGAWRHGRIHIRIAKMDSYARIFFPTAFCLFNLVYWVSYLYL
Gamma-aminobutyric acid receptor subunit alpha-1/alpha-2/beta-2/gamma-2, sequence (P47869 whole entry): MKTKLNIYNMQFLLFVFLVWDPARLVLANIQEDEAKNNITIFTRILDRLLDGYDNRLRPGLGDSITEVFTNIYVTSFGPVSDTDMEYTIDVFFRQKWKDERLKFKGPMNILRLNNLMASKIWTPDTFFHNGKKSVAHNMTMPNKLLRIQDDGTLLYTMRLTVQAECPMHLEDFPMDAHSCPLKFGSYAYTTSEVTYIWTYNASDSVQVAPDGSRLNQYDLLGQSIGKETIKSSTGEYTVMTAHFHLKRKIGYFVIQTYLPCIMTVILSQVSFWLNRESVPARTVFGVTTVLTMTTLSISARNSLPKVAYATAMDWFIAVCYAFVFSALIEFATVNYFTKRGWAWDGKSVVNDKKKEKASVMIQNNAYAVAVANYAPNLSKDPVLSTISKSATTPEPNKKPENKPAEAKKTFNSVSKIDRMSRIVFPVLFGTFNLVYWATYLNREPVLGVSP

[5] = biological target: Sodium-dependent serotonin transporter (Homo sapiens, UniProt P31645); further: assay procedure not described here
Sodium-dependent serotonin transporter, sequence (P31645 whole entry): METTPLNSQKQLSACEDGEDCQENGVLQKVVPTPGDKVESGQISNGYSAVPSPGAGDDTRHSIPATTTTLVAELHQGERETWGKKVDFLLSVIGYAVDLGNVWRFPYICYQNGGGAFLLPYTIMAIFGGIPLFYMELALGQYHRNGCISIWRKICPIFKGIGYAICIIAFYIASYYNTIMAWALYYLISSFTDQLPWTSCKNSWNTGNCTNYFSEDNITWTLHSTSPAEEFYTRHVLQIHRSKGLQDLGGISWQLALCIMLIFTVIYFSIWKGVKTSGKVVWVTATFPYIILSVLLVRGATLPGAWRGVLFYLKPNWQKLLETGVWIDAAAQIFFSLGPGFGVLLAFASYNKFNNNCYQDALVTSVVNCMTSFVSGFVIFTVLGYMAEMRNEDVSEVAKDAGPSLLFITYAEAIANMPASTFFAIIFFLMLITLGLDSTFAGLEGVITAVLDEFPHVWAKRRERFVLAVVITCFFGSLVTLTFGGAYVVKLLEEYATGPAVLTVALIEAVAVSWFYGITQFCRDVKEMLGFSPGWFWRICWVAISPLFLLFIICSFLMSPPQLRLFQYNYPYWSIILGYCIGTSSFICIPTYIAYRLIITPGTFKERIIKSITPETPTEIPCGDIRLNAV

CC(C)CC(N(C)C)C1(c2ccc(Cl)cc2)CCC1 (stereo unspecified) [SIBUTRAMINE]
AC50 [1]: 2.14 µM
AC50 [2]: 0.758 µM

COc1ccc(C(CN(C)C)C2(O)CCCCC2)cc1 (stereo unspecified) [VENLAFAXINE]
AC50 [3]: > 30 µM

COLISTIN
AC50 (Androgen receptor): > 30 µM
AC50 [4]: > 30 µM
AC50 [5]: > 30 µM

From ChEMBL document CHEMBL5291721, “A preclinical secondary pharmacology resource illuminates target-adverse drug reaction associations of marketed drugs” (Nat Commun, 2023)
